Data set [1] deals with T1, human NOX1 (hNOX1) (Homo sapiens, UniProt Q9Y5S8).
T1 construct: pLV-CMV-hNOX1-puro (NM_007052.5); host or cells: HEK293 (CLS GmbH), lentiviral transduction
T1 sequence (Q9Y5S8 1-564): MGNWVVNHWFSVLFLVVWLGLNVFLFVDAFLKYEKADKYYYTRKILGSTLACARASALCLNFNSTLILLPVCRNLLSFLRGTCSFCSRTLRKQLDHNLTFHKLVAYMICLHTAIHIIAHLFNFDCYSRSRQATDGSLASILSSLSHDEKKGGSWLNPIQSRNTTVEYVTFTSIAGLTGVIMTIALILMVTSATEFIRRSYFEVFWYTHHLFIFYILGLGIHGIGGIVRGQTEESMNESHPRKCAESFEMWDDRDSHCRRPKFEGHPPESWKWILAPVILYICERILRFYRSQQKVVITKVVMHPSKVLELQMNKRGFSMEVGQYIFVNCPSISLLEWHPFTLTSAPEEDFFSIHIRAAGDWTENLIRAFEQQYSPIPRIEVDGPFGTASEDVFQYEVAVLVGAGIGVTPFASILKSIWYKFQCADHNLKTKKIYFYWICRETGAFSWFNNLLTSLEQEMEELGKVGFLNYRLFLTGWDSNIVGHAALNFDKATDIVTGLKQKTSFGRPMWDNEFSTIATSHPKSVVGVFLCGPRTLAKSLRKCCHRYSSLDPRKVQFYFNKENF
T1 sequence (P13498 2-195 partner limits assumed): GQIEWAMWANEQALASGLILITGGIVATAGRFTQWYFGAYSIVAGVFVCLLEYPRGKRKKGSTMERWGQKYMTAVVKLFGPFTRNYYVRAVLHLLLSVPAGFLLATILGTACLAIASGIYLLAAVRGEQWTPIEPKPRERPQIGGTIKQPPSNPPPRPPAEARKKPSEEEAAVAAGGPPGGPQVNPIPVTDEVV
In words: NOX1 inhibition assay (L-012), HEK293 cells stably overexpressing human NOX1. As to conditions: HEK293-hNOX1, PMA stimulated. It is filed as cell-based. The text has this:
Plasmids are Purchased from Vectorbuilder. • for HEK-hNOX1 all necessary subunits are cloned accordingly: • pLV-CMV-hNOX1-puro (NM_007052.5) • pLV-CMV-hNOXO1-blas (NM_172168.3) • pLV-CMV-hp22phox-hygro (NM_000101.4) • pLV-CMV-hNOXA1-neo (NM_006647.2) • for HEK-hNOX3 • pLV-CMV-hNOX3-puro (NM_015718.3)
3rd generation lentiviral particles are produced in HEK293 suspension cells by transient transfection of three helper and expression plasmids. Crucial lentivirus supernatants are harvested, clarified by filtration and concentrated by precipitation. Lentivirus titers are determined in transducing units in (TU/mL) by transduction of HT1080 cells and colony forming assay. Parental HEK293 cells, purchased from CLS GmbH, are transduced with replication-incompetent 3rd generation lentiviral particles (MOI 2) and expanded for at least 2 weeks before cryopreservation of tested lots. During cultivation, medium is changed three times per week and cells are sub-cultured at least once per week. Selection antibiotics are added according to the plasmids (1 μg/ml puromycin, 1.5 μg/ml blasticidin, 200 μg/ml G418 and 100 μg/ml hygromycin).
Evaluation of the NOX4 inhibitors on NOX1 activity is assessed in HEK293 cells stably overexpressing human NOX1 (hNOX1).
Lastly, 8-amino-5-chloro-2,3-dihydro-7-phenyl-pyrido[3,4-d]pyridazine-1,4-dione sodium salt (L-012, CAS 143556-24-5) is added at 400 μM to all wells, and cells are incubated in an incubator for an additional 3 h. Afterwards luminescence is measured with a SpectraMax Paradigm Microplate Reader.

Data set [2] deals with human hepatocytes. Briefly: Evaluation of hepatocyte clearance (metabolic stability). Type of data set: in vitro ADME. As to conditions: % of hepatic blood flow. The procedure: The metabolic degradation of the test compound is assayed in a hepatocyte suspension. Hepatocytes (cryopreserved) are incubated in Dulbecco's modified eagle medium (supplemented with […] glucagon/500 mL, 2.5 mg insulin/500 mL and 3.75 mg/500 mL hydrocortisone) containing 5% human serum.
Following a 30 min preincubation in an incubator (37° C., 10% CO2) 5 μl of test compound solution (80 μM; from 2 mM in DMSO stock solution diluted 1:25 with medium) are added into 395 μl hepatocyte suspension (cell density in the range 0.25-5 Mio cells/mL, typically 1 Mio cells/mL; final concentration of test compound 1 μM, final DMSO concentration 0.05%).
The cells are incubated for six hours (incubator, orbital shaker) and samples (25 μl) are taken at 0, 0.5, 1, 2, 4 and 6 hours. Samples are transferred into acetonitrile and pelleted by centrifugation (5 min). The supernatant is transferred to a new 96-deepwell plate, evaporated under nitrogen and resuspended.
Decline of Parent Compound is Analyzed by HPLC-MS/MS.
CLint is Calculated as Follows:
CL_[…]=Dose/AUC=(C0/CD)/(AUD+clast/k)×1000/60. • C0: initial concentration in the incubation [μM], CD: cell density of vital cells [10^6 cells/mL], AUD: area under the data [μM×h], clast: concentration of last data point [μM], • k: slope of the regression line for parent decline [h-1].
The calculated in vitro hepatic intrinsic clearance can be scaled up to the intrinsic in vivo hepatic clearance and used to predict hepatic in vivo blood clearance (CL) by the use of a liver model (well stirred model).
CL_[…]_INVIVO[ml/min/kg]=(CL_[…][μL/min/10^6 cells]×hepatocellularity[10^6 cells/g liver]×liver factor[g/kg bodyweight])/1000
CL[ml/min/kg]=CL_[…]_INVIVO[ml/min/kg]×hepatic blood flow[ml/min/kg]/(CL_[…]_INVIVO[ml/min/kg]+hepatic blood flow[ml/min/kg])

Data set [3] addresses T2, NOX4 (Homo sapiens, UniProt Q9NPH5).
T2 construct: host or cells: modified HEK cells
T2 sequence (Q9NPH5 1-578): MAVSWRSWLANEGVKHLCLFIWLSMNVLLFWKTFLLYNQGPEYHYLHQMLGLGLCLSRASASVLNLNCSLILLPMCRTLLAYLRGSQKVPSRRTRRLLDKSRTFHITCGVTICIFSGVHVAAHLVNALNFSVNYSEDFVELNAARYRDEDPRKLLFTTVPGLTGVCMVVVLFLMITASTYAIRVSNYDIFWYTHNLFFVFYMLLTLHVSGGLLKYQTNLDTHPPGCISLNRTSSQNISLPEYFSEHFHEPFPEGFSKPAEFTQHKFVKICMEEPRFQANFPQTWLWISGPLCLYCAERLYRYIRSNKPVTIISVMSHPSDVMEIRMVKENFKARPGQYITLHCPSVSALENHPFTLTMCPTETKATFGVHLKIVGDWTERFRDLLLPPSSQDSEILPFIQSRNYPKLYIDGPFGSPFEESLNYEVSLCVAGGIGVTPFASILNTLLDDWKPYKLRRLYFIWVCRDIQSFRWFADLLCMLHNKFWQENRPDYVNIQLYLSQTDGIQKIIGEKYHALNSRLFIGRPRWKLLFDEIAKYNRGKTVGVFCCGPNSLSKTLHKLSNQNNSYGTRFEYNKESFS
T2 sequence (P13498 2-195 partner limits assumed): T1 sequence (P13498 2-195 partner limits assumed)
As to conditions: modified HEK cells, Amplex Red; read-out: NOX4 IC50 [μM] as disclosed in WO2016207785; cited from earlier work.

Data set [4] deals with T3, human NOX4 (hNOX4) (Homo sapiens, UniProt Q9NPH5).
T3 sequence (Q9NPH5 1-578): T2 sequence (Q9NPH5 1-578)
T3 sequence (P13498 2-195 partner limits assumed): T1 sequence (P13498 2-195 partner limits assumed)
Briefly: cell-based.
Description: The synthetic gene phNOX4_DNA3_1_Zeo (Accession: AAF68973) is assembled from synthetic oligonucleotides and/or PCR products. The fragment is cloned into pcDNA3.1_Zeo_A011 using NheI and XhoI cloning sites. The plasmid DNA is purified from transformed bacteria and its concentration is determined by UV spectroscopy. The final construct is verified by sequencing. The plasmid is transfected via electroporation (Amaxa electroporation device) in combination with Nucleofector Kit V. Selection of NOX4 overexpressing genes is achieved using selection antibiotic Zeocin.
The inhibitory activity of the example compounds of the invention is determined using the following procedure:
Cells are cultured in the Dulbecco's Modified Eagle Medium (DMEM) media containing 4.5 g/L glucose supplemented with 10% fetal calf serum and 250 μg/ml Zeocin in an incubator at 37° C. with 5% CO2. For the assay, cells are seeded in 384 well plates.
After incubation Lumigen HyPerBlu™ is added and cells are incubated for additional 30 min at 24° C. in a humidified incubator. Next, luminescence is measured using an Envision Multimode Plate reader to determine levels of produced H2O2 in the wells.

pIC50: −log10 of the molar value. “And” between values parts separate entries of the source, which are not always exact repeats. Identical values can stand only once. Bounds are passed on as bounds.

Results on six compounds are retold here after patent US20240327429A1, “[1,3]Thiazolo[4,5-d]-pyrimidon-7-ones as inhibitors of NOX4” (Boehringer Ingelheim International GmbH, priority 2023, published 2024).

`O=c1c2scnc2nc(SCc2cccc(F)c2)n1-c1ccc(O)cc1` [Example 1, 5-((3-Fluorobenzyl)thio)-6-(4-hydroxyphenyl)thiazolo[4,5-d]pyrimidin-7(6H)-one]: the pIC50 in data set [1] is below 4.00; in data set [4] it was 6.25 and 6.26. Also, the “clearance in human hepatocytes” value in data set [2] turned out to be 52 % QH. The IC50 in data set [3] is 0.34 µM. Turning to `O=C(Nc1ccc2oc(N3CCC34COC4)nc2c1)c1ccc2c(c1)CCO2` [Example 15 of WO2016207785], in data set [2], the “clearance in human hepatocytes” value amounted to 29 % QH. For `O=C(Nc1ccc2c(c1)CCO2)c1ccc2oc(N3CCC34COC4)nc2c1` [Example 80], the “clearance in human hepatocytes” value in data set [2] was found to be 46 % QH. As to `O=c1c2scnc2nc(SCc2ccc(Cl)cc2)n1-c1cccnc1` [reference compound], the pIC50 in data set [4] was 5.26. Same read-out and setting: the result for `Cc1cc(F)ccc1CSc1nc2ncsc2c(=O)n1-c1cccnc1` [reference compound] reads 5.09; that for `O=c1c2scnc2nc(SCc2c(F)cc(F)cc2F)n1-c1cncc(F)c1` [reference compound], 5.78.

For orientation: pIC50 means the IC50 on a negative log10 scale, so that one unit is a factor of ten. What is called IC50 is the concentration that inhibits the measured activity by half.
